The source of these data is patent US11147792B2, “Inhibitors of microbially induced amyloid” (Axial Therapeutics, Inc, priority 2017, dated 2021).

What all share (assay type): biochemical
The target of test [1] is T1, human α-synuclein (Homo sapiens, UniProt P37840).
T1 construct: made in house; host or cells: E. coli
The experiment in a line: In vitro Thioflavin T assay of α-synuclein aggregation. To be noted: for inhibition at 1 µM: compounds at 1 μM. On the procedure: In Vitro Thioflavin T Assay to Determine the Effects of Compounds on α-Synuclein Aggregation.
The ammonium sulfate pellet was washed with an equal volume of 100 mM ammonium acetate in ethanol, pelleted via centrifugation, washed twice with ethanol, dried overnight, resuspended in 10 mM Tris pH 7.4, and passed through a 50 kDa cut-off column. The assay was conducted in 96-well black microplates with a single 2 mm bead in each well, 40 μM ThioflavinT, 1% DMSO, 50 μM α-synuclein, 100 mM sodium chloride, 9.3 mM potassium phosphate pH 7.3, 4.6 mM Tris pH 7.4 (added as the solvent for α-synuclein or independently for controls lacking α-synuclein), and compounds at 1 μM or 50 μM. […] Readings were performed hourly for up to 73 hours. The effect of compounds on α-synuclein aggregation in the assay was determined with data from 40 hours, following the plateau of the fluorescent signal in the untreated (no compound) control wells containing α-synuclein. Fluorescence values for each compound with α-synuclein were first adjusted by subtracting the average fluorescence of the compound in the absence of α-synuclein.

The target in test [2] is T2, α-synuclein seeded by E. coli CsgA (Homo sapiens, UniProt P37840).
T2 construct: made in house; host or cells: E. coli NEB 3016 slyD::kan (CsgA, pET11d); E. coli (α-synuclein)
Briefly: In vitro Thioflavin T assay of CsgA-seeded α-synuclein aggregation. On the procedure: In Vitro Thioflavin T Assay to Determine the Effects of Compounds on CsgA-Seeded α-Synuclein Aggregation.
To induce over-expression of CsgA, 0.5 mM IPTG was added to cultures with an optical density at 600 nm (OD600) of 0.8-1, and induced cells were cultured at 37° C. for 1 hour prior to harvest via centrifugation. […] Buffers with imidazole were freshly prepared prior to the protein purification. Purified CsgA was passed through a 30 kDa molecular weight cut-off filter and through a desalting column. All steps of the CsgA purification in the absence of guanidine hydrochloride were conducted in rapid succession with as little delay as possible. […] The ammonium sulfate pellet was washed with an equal volume of 100 mM ammonium acetate in ethanol, pelleted via centrifugation, washed twice with ethanol, dried overnight, resuspended in 10 mM Tris pH 7.4, and passed through a 50 kDa cut-off column. The assay was conducted in 96-well black microplates with a single glass 2 mm bead per well, 40 μM ThioflavinT, 1% DMSO, 2 μM CsgA, 50 μM α-synuclein, 100 mM sodium chloride, 9.3 mM potassium phosphate pH 7.3, and compounds at 50 μM. […] The effect of compounds on CsgA-seeded α-synuclein aggregation in the assay was determined with data from 40 hours, following the plateau of the fluorescent signal in the untreated (no compound) control wells containing CsgA and α-synuclein. Fluorescence values for each compound with CsgA and α-synuclein were first adjusted by subtracting the average fluorescence of the compound in the absence of CsgA and α-synuclein.

Test [3] concerns the target T3, E. coli CsgA (Escherichia coli, UniProt P28307).
T3 construct: made in house; host or cells: E. coli NEB 3016 slyD::kan, pET11d
Briefly: In vitro ThioflavinT assay of CsgA aggregation. The note with it: for Effect on CsgA aggregation (in words) / Inhibition of Aggregation CsgA (compound activity range): compounds at 20 μM; for inhibition at 20 µM / Inhibition of Aggregation CsgA (compound activity range): CsgA at 20 μM, ThT fluorescence at 18 hours; for Inhibition of Aggregation CsgA (compound activity range): 20 µM. On the procedure: In Vitro ThioflavinT Assay to Determine Effects of Compounds on CsgA Aggregation.
To assess the effects of compounds on aggregation of E. coli CsgA, a cell-free assay was performed using purified CsgA and Thioflavin T. In the assay, histidine-tagged CsgA was over-expressed in E. coli NEB 3016 slyD::kan cells harboring a pET11d vector containing csgA with the sequence for 6 histidine residues added to the C-terminus and without the Sec signal (amino acid 1-22) sequence. To induce over-expression of CsgA, 0.5 mM isopropyl β-D-1-thiogalactopyranoside (“IPTG”) was added to cultures with an optical density at 600 nm (OD600) of 0.8-1, and induced cells were cultured at 37° C. for 1 hour prior to harvest via centrifugation. Cells were lysed under denaturing conditions with 8 M guanidine hydrochloride in 50 mM potassium phosphate buffer pH 7.3, and CsgA was purified via immobilized-metal affinity chromatography by batch purification with Nickel-NTA agarose and a combination of low pressure and gravity flow through a disposable polypropylene column, including washes under low pressure applied manually via application of a syringe plunger to the column with 50 mM potassium phosphate buffer pH 7.3 followed by 12.5 mM imidazole in 50 mM potassium phosphate buffer pH 7.3, and elution by gravity flow with 125 mM imidazole in 50 mM potassium phosphate buffer pH 7.3. Buffers with imidazole were freshly prepared prior to the protein purification. Purified CsgA was passed through a 30 kDa molecular weight cut-off filter and passed through a desalting column. All steps of the CsgA purification in the absence of guanidine hydrochloride were conducted in rapid succession with as little delay as possible. The assay was conducted in 96-well black microplates with 40 μM ThioflavinT, 1% DMSO, CsgA at 20 μM, and compounds at 20 μM. Plates were incubated at 25° C. in a Tecan Nano F200 plate reader with excitation at 438 nm using a 439 nm filter with a bandwidth of 8 nm, and emission at 495 nm with a 490 nm filter with a bandwidth of 10 nm. During the assay, plates were shaken initially for 5 seconds and subsequently for 3 seconds prior to fluorescent readings. Readings were performed every 20 minutes for up to 24 hours. The effect of compounds on CsgA aggregation in the assay was determined with data from 18 hours, following the plateau of the fluorescent signal in the untreated (no compound) control wells containing CsgA. Fluorescence values for each compound with CsgA were first adjusted by subtracting the average fluorescence of the compound in the absence of CsgA. These adjusted values were normalized by dividing them by the average fluorescence in the no-compound (i.e., untreated) control wells containing CsgA […], and the average normalized fluorescence with the compound was expressed as a percentage of the average fluorescence observed in untreated controls.

The mark [4] stands for this setting: read-out: Inhibition of Aggregation αSyn.
The mark [5] stands for this setting: read-out: Inhibition of Aggregation αSyn (compound activity range).
The mark [6] stands for this setting: compounds at 50 μM, 2 μM CsgA, 50 μM α-synuclein, ThT fluorescence at 40 hours, read-out: Inhibition of Aggregation CsgA-seeded αSyn.
Where [7] appears, read: read-out: Inhibition of Aggregation CsgA (compound activity range), compounds at 20 μM.
The mark [8] stands for this setting: read-out: Inhibition of Aggregation CsgA, compounds at 20 μM.
Where [9] appears, read: compounds at 50 μM, 50 μM α-synuclein, ThT fluorescence at 40 hours, read-out: Inhibition of Aggregation αSyn.
The mark [10] stands for this setting: compounds at 50 μM, 50 μM α-synuclein, ThT fluorescence at 40 hours, read-out: Inhibition of Aggregation αSyn (compound activity range).
[11] abbreviates: read-out: Inhibition of Aggregation CsgA-seeded αSyn.
[12] abbreviates: 50 μM α-synuclein, ThT fluorescence at 40 hours, read-out: Inhibition of Aggregation αSyn.
The mark [13] stands for this setting: 50 μM α-synuclein, ThT fluorescence at 40 hours, read-out: Inhibition of Aggregation αSyn (compound activity range).

Where two headings read alike, the source gives them in different places.

T3 sequence (P28307 23-151): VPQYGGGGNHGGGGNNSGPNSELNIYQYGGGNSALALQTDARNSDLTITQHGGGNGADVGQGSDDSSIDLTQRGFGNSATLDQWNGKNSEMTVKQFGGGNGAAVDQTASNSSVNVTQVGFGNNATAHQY

With `C=CCc1ccc(OC)c(OC)c1` [4-allyl-1,2-dimethoxy-benzene, 4-allyl-1,2-dimethoxybenzene], the “Effect on α-synuclein aggregation (in words)” value in test [1] (compounds at 50 μM) is “without notable inhibition”. Besides, the inhibition – broadly, the drop in the measured response relative to a control, in per cent – at 50 µM is 5% in test [1] (setting [4]); -10 to 10% in test [1] (setting [5]); 36% in test [2] (setting [6]); 30 to 60% in test [2] (compounds at 50 μM, 2 μM CsgA, 50 μM α-synuclein, ThT fluorescence at 40 hours, read-out: Inhibition of Aggregation CsgA-seeded αSyn (compound activity range)). The “Effect on CsgA-seeded α-synuclein aggregation (in words)” value in test [2] (compounds at 50 μM) is listed as “demonstrated inhibition”. For the same compound, the “Effect on CsgA aggregation (in words)” value in test [3] is “without notable inhibition”. For the same compound, the inhibition at 20 µM in test [3] (setting [7]) is less than -10%; in test [3] (setting [8]), -18%.
In the case of `CCc1ccc(O)c(OC)c1` [4-ethyl guaiacol, 4-ethyl-2-methoxyphenol], the inhibition at 50 µM in test [1] (setting [9]) is -2%; in test [1] (setting [10]), -10 to 10%; in test [2] (setting [11]), -10%; in test [2] (read-out: Inhibition of Aggregation CsgA-seeded αSyn (compound activity range)), 30 to 60%. Further, the “Effect on CsgA aggregation (in words)” value in test [3] is reported as “relatively strong enhancement of CsgA aggregation”. The inhibition at 20 µM in test [3] (setting [8]) is -82%.
In the case of `Brc1cccc(-c2cc(-c3ccc4c(c3)OCO4)n[nH]2)c1` [Anle 138b, reference compound], the “Effect on CsgA aggregation (in words)” value in test [3] is “relatively little to no effect”. For the same compound, the inhibition at 20 µM is -10 to 10% in test [3] (setting [7]) and 9% in test [3] (setting [8]).
`CC(Cc1ccc(O)c(O)c1)C(C)Cc1ccc(O)c(O)c1` (stereo not drawn) [NDGA, 4,4′-(2,3-dimethylbutane-1,4-diyl)dibenzene-1,2-diol]: the inhibition at 50 µM is 54% in test [1] (setting [9]), 30 to 60% in test [1] (setting [10]) and 39% in test [2] (setting [6]). The inhibition at 20 µM in test [3] (setting [7]) was 10 to 30%; in test [3] (setting [8]) it was 23%.
As for `O=c1cc(-c2ccc(O)cc2)oc2cc(O)cc(O)c12` [apigenin, 5,7-dihydroxy-2-(4-hydroxyphenyl)-4H-1-benzopyran-4-one], the inhibition at 1 µM is 56% in test [1] (setting [12]) and 30 to 60% in test [1] (setting [13]).
For `Cc1ccc(C(C)C)cc1O` [carvacrol, 2-methyl-5-(propan-2-yl)phenol], the results for the inhibition at 50 µM in test [1] (setting [4]), in test [1] (setting [5]) and in test [2] (setting [11]) were 2%, -10 to 10% and -2%, respectively. In addition, the “Inhibition of Aggregation CsgA (compound activity range)” value in test [3] is reported as “− ((−) is between −10% to 10% inhibition)”. Besides, the inhibition at 20 µM in test [3] (setting [8]) is -20%.
On to `COc1cc(/C=C/C(=O)/C=C(O)/C=C/c2ccc(O)c(OC)c2)ccc1O` [curcumin, (1E,6E)-1,7-Bis(4-hydroxy-3-methoxyphenyl)hepta-1,6-diene-3,5-dione], for which the inhibition at 50 µM in test [1] (setting [4]) is 89%; in test [1] (setting [5]), greater than 60%; in test [2] (setting [6]), 86%.
Take `O=c1c(-c2ccc(O)cc2)coc2cc(O)cc(O)c12` [genistein, 5,7-dihydroxy-3-(4-hydroxyphenyl)chromen-4-one]: the results for the inhibition at 1 µM in test [1] (setting [12]) and in test [1] (setting [13]) were 40% and 30 to 60%, respectively.
Turning to `O=c1c(O)c(-c2ccc(O)c(O)c2)oc2cc(O)cc(O)c12` [quercetin, 2-(3,4-dihydroxyphenyl)-3,5,7-trihydroxychromen-4-one], the inhibition at 1 µM was 99% in test [1] (setting [12]) and greater than 60% in test [1] (setting [13]). Further, the inhibition at 20 µM in test [3] (setting [7]) is 30 to 60%; in test [3] (setting [8]), 33%.
For the compound `Oc1ccc(/C=C/c2cc(O)cc(O)c2)cc1` [resveratrol, (E)-5-(4-hydroxystyryl)benzene-1,3-diol], the inhibition at 1 µM in test [1] (setting [12]) is 86%; in test [1] (setting [13]) it was greater than 60%. In addition, the “Inhibition of Aggregation CsgA (compound activity range)” value in test [3] was “(+++) to (++)”. Besides, the inhibition at 20 µM was greater than 60% in test [3] (setting [7]) and 62% in test [3] (setting [8]).
As for `O=C(/C=C/c1ccc(O)c(O)c1)O[C@H](Cc1ccc(O)c(O)c1)C(=O)O` [rosmarinic acid], the inhibition at 1 µM in test [1] (setting [12]) was 99%; in test [1] (setting [13]), greater than 60%. In addition, the inhibition at 20 µM in test [3] (setting [7]) was 30 to 60%; in test [3] (setting [8]) it was 48%.
